The record followed here is ChEMBL document CHEMBL1177643, “Synthesis, DNA-binding ability and anticancer activity of benzothiazole/benzoxazole-pyrrolo[2,1-c][1,4]benzodiazepine conjugates” (Bioorg Med Chem, 2010).

The assay relates to Calf thymus DNA. The assay can be described thus: Binding affinity to calf thymus duplex-form DNA assessed as melting temperature at 1:5 compound/DNA ratio after 18 hrs. As to conditions: Bos taurus. Format: nucleic-acid assay.

Take `COc1cc(-c2nc3ccccc3o2)ccc1OCCCCCOc1cc2c(cc1OC)C(=O)N1CCC[C@H]1C=N2`: the ΔTm (usually the shift of the melting midpoint relative to a reference) amounted to 4.2 °C.
Turning to `COc1cc2c(cc1OCCCCC(=O)Nc1ccc(-c3nc4ccc(F)cc4s3)cc1)N=C[C@@H]1CCCN1C2=O`, the ΔTm is 2.3 °C.
